Test results reported in PubChem BioAssay AID1159536 (DiRusso Lab, Biochemistry Department, University of Nebraska, 2015).
Results filed as inconclusive are left out. Active and inactive are the calls of the source. No rule for the calls is given here.

system: not listed separately; assay: algal triacylglycerol accumulation inducers, dose response, qHTS, Chlamydomonas reinhardtii (AID 1159536); conditions: Chlamydomonas reinhardtii, Nile Red lipid fluorescence, 72 h; at 30 µM (top of the series)

Compound | fold change vs untreated, higher = more lipid
Cc1ccc(OCCCCN2CCCC2)c(C)c1 | 6.28
COc1cccc(CN2CCN(C(=O)c3cc(OC)c(OC)c(OC)c3)CC2)c1OC | 1.75 (inactive)
Cc1cc(Br)ccc1OCC(=O)NCc1ccc2c(c1)OCO2 | 1.4 (inactive)
Fc1ccc(N2CCN(CCc3ccccc3)CC2)cc1 | 9.42
C=CCNC(=O)C(C)N(c1ccc(OCC)cc1)S(C)(=O)=O (stereo not given) | 1.69 (inactive)
CCN1CCN(C2CCC(C(C)(C)C)CC2)CC1 (stereo not given) | 2.66 (inactive)
CC(=O)Nc1ccc(OCC(=O)Nc2cc(Cl)cc(Cl)c2)cc1 | 2.48 (inactive)
Cc1ccc(Cn2cnc3c(cnn3-c3ccccc3)c2=O)c(C)c1 | 3 (inactive)
Cc1c(C(=O)Nc2ccccc2C(=O)NCc2ccccc2)cccc1[N+](=O)[O-] | 2.77 (inactive)
O=C(Nc1ccccc1C(=O)NCc1ccccc1)c1ccc([N+](=O)[O-])cc1 | 2.49 (inactive)
Cc1c(N/C=C/C(=O)c2cccs2)c(=O)n(-c2ccccc2)n1C | 1.42 (inactive)
Cc1cc(Cl)c(OCCn2ccnc2)c(Br)c1 | 5.38
COc1ccc(S(=O)(=O)N(CC(=O)NC(C)C)c2cc(C)cc(C)c2)cc1OC | 1.07 (inactive)
CC(C)(C)c1ccc(OCCCCN2CCOCC2)cc1 | 3.88
COc1ccccc1Cn1c(C(C)O)nc2ccccc21 (stereo not given) | 0.95 (inactive)
Cc1ccc(CN2CCC(C(=O)NCc3ccccc3Cl)CC2)cc1 | 15.2
O=C(NC1CCN(Cc2ccccc2)CC1)c1ccc(Cl)cc1Cl | 12.2
COc1cc(NC(=O)C(Cl)Cl)c(OC)cc1Cl | 1.42 (inactive)
COc1cc(-c2ccc(NC(=O)c3ccco3)c(OC)c2)ccc1NC(=O)c1ccco1 | 1.4 (inactive)
CCC1CCCCN1C(=O)c1ccc(Cl)cc1[N+](=O)[O-] (stereo not given) | 1.87 (inactive)
Cc1ccc(N2CCN(CCc3ccccc3)CC2)cc1 | 8.09
O=C(O)C1CCN(C(=O)c2ccc(F)cc2)CC1 | 1.24 (inactive)
Cc1sc(NC(=O)c2cccs2)c(C(=O)O)c1C | 1.38 (inactive)

system: Chlamydomonas reinhardtii, Nile Red lipid fluorescence, 72 h; assay: as above; conditions: not given

Compound | EC50
O=[N+]([O-])c1ccc(CN2CCN(C3CC4CCC3C4)CC2)cc1 (stereo not given) | 2.53 µM
CCN(CC)CC(=O)Nc1ccc(Br)cc1 | 10.6 µM
CCC(CC)C(=O)Nc1ccc(C(=O)Nc2nccs2)cc1 | 1.83 µM (inactive)
CC(C)(C)c1ccc(OCC(O)CN2CCN(CCO)CC2)cc1 (stereo not given) | 1.29 µM
COc1ccc(CN2CCN(CC3CC4C=CC3C4)CC2)cc1OC (stereo not given) | 3.91 µM
CN1CCN(Cc2ccc(-c3ccccc3Cl)o2)CC1 | 3.34 µM
CN1CCN(Cc2ccc3c(c2)Cc2ccccc2-3)CC1 | 9.99 µM
